Values of other authors as cited in article PMC5516987, “Safety and pharmacodynamics of dalazatide, a Kv1.3 channel inhibitor, in the treatment of plaque psoriasis: A randomized phase 1b trial” (PLoS ONE, 2017).

What was measured:
[1] = test system: viral and bacterial infections; settings: chronically treated animals, versus vehicle
Source text: Dalazatide (previously referred to as ShK-186 and SL5) is a 37-amino acid synthetic peptide that is a specific inhibitor of the voltage-gated Kv1.3 potassium channel. It is a derivative of ShK, which was originally isolated from the venom of the sea anemone Stichodactyla helianthus. Human T cells rely on two potassium channels, Kv1.3 and KCa3.1 to maintain the calcium signaling required for their activation and differentiation, by maintaining a balance between calcium influx and potassium efflux. Chronically activated memory T cells that rely on upregulation of Kv1.3 expression for ...

[2] = 4-AP and related compounds
Source text: One potassium channel blocking drug that has been tested in humans is the nonselective potassium channel inhibitor, 4-aminopyridine (4-AP, fampridine, dalfampridine). Various formulations of 4-AP have been evaluated for their potential to increase nerve conduction and improve function in spinal cord injury, autoimmune diseases involving the nervous system, and diseases of nerve conduction. The most commonly reported adverse events are paresthesia (perioral and digital), nausea, dizziness, headache, and insomnia. Although infrequent, the most serious toxicity reported in patients treated ...

| SMILES | Clearance of viral and bacterial infections [1] | Crossing of the blood-brain barrier [2] |
| --- | --- | --- |
| C[C@@H]1C[C@H]2[C@@H]3CCC4=CC(=O)C=C[C@]4(C)[C@@]3(F)[C@@H](O)C[C@]2(C)[C@@]1(O)C(=O)CO [dexamethasone] | significantly delayed clearance rate | – |
| Nc1ccncc1 [4-AP, 4-aminopyridine] | – | readily cross the blood-brain barrier |
